From PubChem BioAssay (NCI)
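Tested at 5 concentrations; 48 h exposure; 96-well plates; endpoints linearly interpolated, else capped at highest concentration. GI50 is the concentration that inhibits growth by half. TGI: concentration producing complete growth inhibition.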

Assays:
Assay in all cases: NCI tumour cell line growth inhibition, 48 h
[1] = tested on: MDA-MB-231 breast
[2] = tested on: NCI-H522 lung
[3] = tested on: NCI-H460 lung
[4] = tested on: OVCAR-4 ovarian
[5] = tested on: 786-0 renal
[6] = tested on: HCT-15 colon
[7] = tested on: HOP-92 NSCLC
[8] = tested on: SK-MEL-2 melanoma
[9] = tested on: KM12 colon
[10] = tested on: SN12C renal

CCOC(=O)Nc1nc2cc(OCC)ccc2s1
GI50 [1]: > 100 µM | TGI [1]: > 100 µM | GI50 [2]: 6.05 µM | TGI [2]: > 100 µM | GI50 [3]: 8.02 µM | TGI [3]: > 100 µM | GI50 [4]: > 100 µM | TGI [4]: > 100 µM | GI50 [5]: > 100 µM | TGI [5]: > 100 µM | GI50 [6]: 4.8 µM | TGI [6]: > 100 µM | GI50 [7]: > 100 µM | TGI [7]: > 100 µM | GI50 [8]: 16.3 µM | TGI [8]: > 100 µM | GI50 [9]: 3.86 µM | TGI [9]: > 100 µM | GI50 [10]: > 84.4 µM | TGI [10]: > 100 µM

Cc1ccc2sc3ccc(N)cc3c(=O)c2c1
TGI [1]: > 100 µM | TGI [2]: > 100 µM | TGI [3]: > 100 µM | TGI [4]: > 100 µM | TGI [5]: > 100 µM | TGI [6]: > 100 µM | TGI [7]: 98.3 µM | TGI [8]: > 100 µM | TGI [9]: > 100 µM | TGI [10]: > 100 µM

O=C(N/N=C/c1ccc(Cl)cc1)c1[nH]c2ccc(Cl)cc2c1-c1ccccc1
GI50 [1]: 0.201 µM | TGI [1]: 0.633 µM | GI50 [2]: 0.0458 µM | TGI [2]: 0.167 µM | GI50 [3]: 0.328 µM | TGI [3]: 3.99 µM | GI50 [4]: 0.183 µM | TGI [4]: > 79.3 µM | GI50 [5]: 0.294 µM | TGI [5]: > 34.7 µM | GI50 [6]: 0.255 µM | GI50 [7]: 0.424 µM | TGI [7]: 41.5 µM | GI50 [8]: 0.332 µM | TGI [8]: 35.5 µM | GI50 [9]: 0.181 µM | TGI [9]: 0.568 µM | GI50 [10]: 0.206 µM | TGI [10]: > 70.4 µM

COc1ccc([C@@H](O)c2cc(-c3ncnc4cc(N5CCOCC5)ccc34)c(F)cc2Cl)nn1
GI50 [1]: 4.96 µM | TGI [1]: > 100 µM | GI50 [2]: 3.31 µM | TGI [2]: 22.3 µM | GI50 [3]: 2.92 µM | TGI [3]: 43.4 µM | GI50 [4]: 6.12 µM | TGI [4]: > 100 µM | GI50 [5]: 1.1 µM | TGI [5]: 25.3 µM | GI50 [6]: 3.08 µM | TGI [6]: 23.2 µM | GI50 [7]: 0.382 µM | TGI [7]: > 100 µM | GI50 [8]: 7.37 µM | TGI [8]: 25.3 µM | GI50 [9]: 5.47 µM | TGI [9]: 24.1 µM | GI50 [10]: 2.45 µM | TGI [10]: > 100 µM

COc1cc(/C=C2\CN(C(=O)CCN3CCC(=NO)CC3)C/C(=C\c3cc(OC)c(OC)c(OC)c3)C2=O)cc(OC)c1OC
GI50 [1]: 0.323 µM | TGI [1]: 1.11 µM | GI50 [2]: 0.323 µM | TGI [2]: 1.34 µM | GI50 [3]: 0.282 µM | TGI [3]: 0.847 µM | GI50 [4]: 0.733 µM | TGI [4]: 2.15 µM | GI50 [5]: 0.355 µM | TGI [5]: 1.14 µM | GI50 [6]: 0.972 µM | TGI [6]: 3.22 µM | GI50 [7]: 0.676 µM | TGI [7]: 2.04 µM | GI50 [8]: 1.25 µM | TGI [8]: 4.14 µM | GI50 [9]: 0.263 µM | TGI [9]: 0.731 µM | GI50 [10]: 0.241 µM | TGI [10]: 0.695 µM

Oc1c(CN2CCCC2)cc(CSCc2ccccc2)c2cccnc12
GI50 [1]: 0.987 µM | TGI [1]: 12.2 µM | GI50 [2]: 1.14 µM | TGI [2]: 3.77 µM | GI50 [3]: 0.498 µM | TGI [3]: 2.83 µM | GI50 [4]: 0.456 µM | TGI [4]: 2.47 µM | GI50 [5]: 0.728 µM | TGI [5]: 6.09 µM | GI50 [6]: 0.0612 µM | TGI [6]: 1.85 µM | GI50 [7]: 4.52 µM | TGI [7]: 17.6 µM | GI50 [8]: 1.86 µM | TGI [8]: 7.21 µM | GI50 [9]: 0.635 µM | TGI [9]: 11.9 µM | GI50 [10]: 1.69 µM | TGI [10]: 13.5 µM

Clc1ccc2c(c1)C(N1CCNCC1)=Nc1ccccc1O2
GI50 [1]: 1.79 µM | TGI [1]: 4.02 µM | GI50 [2]: 1.82 µM | TGI [2]: 3.87 µM | GI50 [3]: 2.46 µM | TGI [3]: 5.41 µM | GI50 [4]: 2.45 µM | TGI [4]: 8.72 µM | GI50 [5]: 1.49 µM | TGI [5]: 3.27 µM | GI50 [6]: 3.26 µM | TGI [6]: 11.7 µM | GI50 [7]: 0.374 µM | TGI [7]: 2.8 µM | GI50 [8]: 1.77 µM | TGI [8]: 3.4 µM | GI50 [9]: 1.73 µM | TGI [9]: 3.28 µM | GI50 [10]: 2.87 µM | TGI [10]: 13.6 µM
